# From US12077503B2, “Substituted cyclic amides and their use as herbicides” (FMC CORPORATION, priority 2015, dated 2024)
# Tests used:
# Format in all cases: in vivo
# [1] = tested on: rice (Oryra sativa); assay: Test B flooded paddy test; settings: Flood, 0 to 100 scale where 0 is no effect and 100 is complete control, 13 to 15 d
# Outline: (§1)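 Evaluation by eye, against controls, occurred 13–15 d post-treatment in a greenhouse, using a 0 (no effect) to 100 (complete control) scale. Application was into the paddy water, 3 cm deep over the soil, on 2-leaf plants.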
# [2] = tested on: sedge, umbrella (small-flower umbrella sedge, Cyperus difformis); assay: Test B flooded paddy test; settings: Flood, 0 to 100 scale where 0 is no effect and 100 is complete control, 13 to 15 d
# Outline: as §1
# [3] = tested on: barnyardgrass (Echinochloa crus-galli); assay: Test B flooded paddy test; settings: Flood, 0 to 100 scale where 0 is no effect and 100 is complete control, 13 to 15 d
# Outline: as §1
# [4] = tested on: ducksalad (Heteranthera limosa); assay: Test B flooded paddy test; settings: Flood, 0 to 100 scale where 0 is no effect and 100 is complete control, 13 to 15 d
# Outline: as §1
# [5] = tested on: ryegrass, Italian (Italian ryegrass, Lolium multiflorum); assay: Test A preemergence; settings: for Ryegrass, Italian plant response rating (0 to 100 scale, 0 is no effect, 100 is complete control): visual injury approx. 10 d
# Outline: (§2)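 Preemergence directed soil spray on seeded pots, or postemergence application to plants 2–10 cm, one- to two-leaf. Solvent mixture non-phytotoxic, with surfactant. Scored ~10 d later, visually, 0–100 vs untreated.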
# [6] = tested on: pigweed (Amaranthus retroflexus); assay: Test A preemergence; settings: for Pigweed plant response rating (0 to 100 scale, 0 is no effect, 100 is complete control): visual injury approx. 10 d
# [7] = tested on: Kochia (Kochia scoparia); assay: Test A preemergence; settings: for Kochia plant response rating (0 to 100 scale, 0 is no effect, 100 is complete control): visual injury approx. 10 d
# Outline: as §2
# [8] = tested on: giant foxtail (Setaria faberii); assay: Test A preemergence; settings: for Foxtail, Giant plant response rating (0 to 100 scale, 0 is no effect, 100 is complete control): visual injury approx. 10 d
# Outline: as §2
# [9] = tested on: barnyardgrass (Echinochloa crus-galli); assay: Test A preemergence; settings: for Barnyardgrass plant response rating (0 to 100 scale, 0 is no effect, 100 is complete control): visual injury approx. 10 d
# Outline: as §2
# [10] = tested on: ragweed (common ragweed, Ambrosia elatior); assay: Test A preemergence; settings: for Ragweed plant response rating (0 to 100 scale, 0 is no effect, 100 is complete control): visual injury approx. 10 d
# Outline: as §2
# [11] = tested on: ryegrass, Italian (Italian ryegrass, Lolium multiflorum); assay: Test A postemergence
# Outline: as §2
# [12] = tested on: wheat (Triticum aestivum); assay: Test A postemergence
# Outline: as §2
# [13] = tested on: pigweed (Amaranthus retroflexus); assay: Test A postemergence
# Outline: as §2
# [14] = tested on: Kochia (Kochia scoparia); assay: Test A postemergence
# Outline: as §2
# [15] = tested on: corn (Zea mays); assay: Test A postemergence
# Outline: as §2
# [16] = tested on: giant foxtail (Setaria faberii); assay: Test A postemergence
# Outline: as §2
# [17] = tested on: barnyardgrass (Echinochloa crus-galli); assay: Test A postemergence
# Outline: as §2
# [18] = tested on: blackgrass (Alopecurus myosuroides); assay: Test A postemergence
# Outline: as §2
# [19] = tested on: ragweed (common ragweed, Ambrosia elatior); assay: Test A postemergence
# Outline: as §2
# [20] = tested on: Galium (catchweed bedstraw, Galium aparine); assay: Test A postemergence
# Outline: as §2
# [21] = 125 g ai/ha, Preemergence, visual injury after approximately 10 d, 0 to 100 scale where 0 is no effect and 100 is complete control
# [22] = 125 g ai/ha, postemergence, visual rating after approx. 10 d, 0 to 100 scale (0 no effect, 100 complete control)
# [23] = Postemergence, 500 g ai/ha, 0 to 100 scale where 0 is no effect and 100 is complete control
# [24] = 500 g ai/ha, preemergence, 0 to 100 scale, 0 = no effect, 100 = complete control
# [25] = 125 g ai/ha, preemergence, 0 to 100 scale (0 no effect, 100 complete control)
# [26] = 125 g ai/ha, postemergence, visual injury rating on 0 to 100 scale (0 no effect, 100 complete control), approx. 10 d
# [27] = 500 g ai/ha, postemergence, 0 to 100 scale, 0 no effect, 100 complete control
structure (smiles),measurement,setting,value
O=C1NCC(c2cc(F)c(F)cc2F)C1C(=O)Nc1ccc(F)cc1F (racemic) [Compound 551],"Plant response rating, Rice",[1]; 250 g ai/ha,15
same,"Plant response rating, Sedge, Umbrella",[2]; 250 g ai/ha,0
same,"Plant response rating, Barnyardgrass",[3]; 250 g ai/ha,20
same,"Plant response rating, Ducksalad",[4]; 250 g ai/ha,85
same,"Plant response rating, Ryegrass, Italian",[5]; [21],0
same,"Ryegrass, Italian plant response rating (0 to 100 scale, 0 is no effect, 100 is complete control)","[5]; Preemergence, 500 g ai/ha",0
same,"Plant response rating, Pigweed",[6]; [21],0
same,"Pigweed plant response rating (0 to 100 scale, 0 is no effect, 100 is complete control)","[6]; Preemergence, 500 g ai/ha",0
same,"Plant response rating, Kochia",[7]; [21],0
same,"Kochia plant response rating (0 to 100 scale, 0 is no effect, 100 is complete control)","[7]; Preemergence, 500 g ai/ha",0
same,"Plant response rating, Foxtail, Giant",[8]; [21],80
same,"Foxtail, Giant plant response rating (0 to 100 scale, 0 is no effect, 100 is complete control)","[8]; Preemergence, 500 g ai/ha",90
same,"Plant response rating, Barnyardgrass",[9]; [21],30
same,"Barnyardgrass plant response rating (0 to 100 scale, 0 is no effect, 100 is complete control)","[9]; Preemergence, 500 g ai/ha",90
same,"Plant response rating, Ragweed",[10]; [21],0
same,"Ragweed plant response rating (0 to 100 scale, 0 is no effect, 100 is complete control)","[10]; Preemergence, 500 g ai/ha",0
same,"Plant response rating, Ryegrass, Italian",[11]; [22],0
same,"Plant response rating, Ryegrass, Italian",[11]; [23],0
same,"Plant response rating, Wheat",[12]; [22],0
same,"Plant response rating, Wheat",[12]; [23],0
same,"Plant response rating, Pigweed",[13]; [22],0
same,"Plant response rating, Pigweed",[13]; [23],0
same,"Plant response rating, Kochia",[14]; [22],0
same,"Plant response rating, Kochia",[14]; [23],0
same,"Plant response rating, Corn",[15]; [22],0
same,"Plant response rating, Corn",[15]; [23],0
same,"Plant response rating, Foxtail, Giant",[16]; [22],50
same,"Plant response rating, Foxtail, Giant",[16]; [23],80
same,"Plant response rating, Barnyardgrass",[17]; [22],10
same,"Plant response rating, Barnyardgrass",[17]; [23],80
same,"Plant response rating, Blackgrass",[18]; [22],0
same,"Plant response rating, Blackgrass",[18]; [23],0
same,"Plant response rating, Ragweed",[19]; [22],0
same,"Plant response rating, Ragweed",[19]; [23],0
same,"Plant response rating, Galium",[20]; [22],0
same,"Plant response rating, Galium",[20]; [23],0
O=C1NCC(c2cc(F)c(F)cc2F)C1C(=O)Nc1ccc(F)c(F)c1F (stereo not drawn) [Compound 614],"Plant response rating, Rice",[1]; 250 g ai/ha,10
same,"Plant response rating, Sedge, Umbrella",[2]; 250 g ai/ha,0
same,"Plant response rating, Barnyardgrass",[3]; 250 g ai/ha,65
same,"Plant response rating, Ducksalad",[4]; 250 g ai/ha,100
same,"Plant response rating, Ryegrass, Italian",[5]; [21],0
same,"Plant response rating, Ryegrass, Italian",[5]; [24],20
same,"Plant response rating, Pigweed",[6]; [21],0
same,"Plant response rating, Pigweed",[6]; [24],0
same,"Plant response rating, Kochia",[7]; [21],0
same,"Plant response rating, Kochia",[7]; [24],20
same,"Plant response rating, Foxtail, Giant",[8]; [21],90
same,"Plant response rating, Foxtail, Giant",[8]; [24],90
same,"Plant response rating, Barnyardgrass",[9]; [21],50
same,"Plant response rating, Barnyardgrass",[9]; [24],90
same,"Plant response rating, Ragweed",[10]; [21],0
same,"Plant response rating, Ragweed",[10]; [24],0
same,"Plant response rating, Ryegrass, Italian",[11]; [22],0
same,"Plant response rating, Ryegrass, Italian",[11]; [23],20
same,"Plant response rating, Wheat",[12]; [22],0
same,"Plant response rating, Wheat",[12]; [23],40
same,"Plant response rating, Pigweed",[13]; [22],0
same,"Plant response rating, Pigweed",[13]; [23],30
same,"Plant response rating, Kochia",[14]; [22],0
same,"Plant response rating, Kochia",[14]; [23],50
same,"Plant response rating, Corn",[15]; [22],0
same,"Plant response rating, Corn",[15]; [23],20
same,"Plant response rating, Foxtail, Giant",[16]; [22],80
same,"Plant response rating, Foxtail, Giant",[16]; [23],90
same,"Plant response rating, Barnyardgrass",[17]; [22],80
same,"Plant response rating, Barnyardgrass",[17]; [23],90
same,"Plant response rating, Blackgrass",[18]; [22],30
same,"Plant response rating, Blackgrass",[18]; [23],70
same,"Plant response rating, Ragweed",[19]; [22],0
same,"Plant response rating, Ragweed",[19]; [23],0
same,"Plant response rating, Galium",[20]; [22],30
same,"Plant response rating, Galium",[20]; [23],40
O=C1NCC(c2cccc(OCC(F)F)c2)C1C(=O)Nc1ccc(F)c(F)c1F (stereo not drawn) [Compound 407],"Plant response rating, Rice",[1]; 500 g ai/ha,10
same,"Plant response rating, Sedge, Umbrella",[2]; 500 g ai/ha,0
same,"Plant response rating, Barnyardgrass",[3]; 500 g ai/ha,60
same,"Plant response rating, Ducksalad",[4]; 500 g ai/ha,100
same,"Plant response rating, Ryegrass, Italian",[5]; [25],0
same,"Ryegrass, Italian plant response rating (0 to 100 scale, 0 is no effect, 100 is complete control)","[5]; Preemergence, 500 g ai/ha",0
same,"Plant response rating, Pigweed",[6]; [25],0
same,"Pigweed plant response rating (0 to 100 scale, 0 is no effect, 100 is complete control)","[6]; Preemergence, 500 g ai/ha",20
same,"Plant response rating, Kochia",[7]; [25],0
same,"Kochia plant response rating (0 to 100 scale, 0 is no effect, 100 is complete control)","[7]; Preemergence, 500 g ai/ha",0
same,"Plant response rating, Foxtail, Giant",[8]; [25],80
same,"Foxtail, Giant plant response rating (0 to 100 scale, 0 is no effect, 100 is complete control)","[8]; Preemergence, 500 g ai/ha",90
same,"Plant response rating, Barnyardgrass",[9]; [25],70
same,"Barnyardgrass plant response rating (0 to 100 scale, 0 is no effect, 100 is complete control)","[9]; Preemergence, 500 g ai/ha",80
same,"Plant response rating, Ragweed",[10]; [25],0
same,"Ragweed plant response rating (0 to 100 scale, 0 is no effect, 100 is complete control)","[10]; Preemergence, 500 g ai/ha",0
same,"Ryegrass, Italian plant response rating",[11]; [26],0
same,"Plant response rating, Ryegrass, Italian",[11]; [27],0
same,Wheat plant response rating,[12]; [26],0
same,"Plant response rating, Wheat",[12]; [27],0
same,Pigweed plant response rating,[13]; [26],0
same,"Plant response rating, Pigweed",[13]; [27],0
same,Kochia plant response rating,[14]; [26],0
same,"Plant response rating, Kochia",[14]; [27],40
same,Corn plant response rating,[15]; [26],0
same,"Plant response rating, Corn",[15]; [27],40
same,"Foxtail, Giant plant response rating",[16]; [26],70
same,"Plant response rating, Foxtail, Giant",[16]; [27],70
same,Barnyardgrass plant response rating,[17]; [26],60
same,"Plant response rating, Barnyardgrass",[17]; [27],70
same,Blackgrass plant response rating,[18]; [26],30
same,"Plant response rating, Blackgrass",[18]; [27],50
same,Ragweed plant response rating,[19]; [26],0
same,"Plant response rating, Ragweed",[19]; [27],0
same,Galium plant response rating,[20]; [26],0
same,"Plant response rating, Galium",[20]; [27],0
